Structures are written as SMILES. Where a name gives a salt, the structure may show the parent alone.

The nature of the data set: Solubility of dicyclohexylamine salts: amounts of solvents needed to dissolve each compound at reflux. In kind it is physicochemical. The conditions noted are these: amounts approximate, same quantity of each compound.

Excerpt: In particular, the amounts of solvents needed to dissolve each compound at reflux are provided.
The amounts of solvents needed to dissolve the salts are approximate.

`CC(=O)c1ccccc1CC[C@@H](SCC1(CC(=O)O)CC1)c1cccc(/C=C/c2ccc3ccc(Cl)cc3n2)c1` [IIa, (R)-(E)-1-(((1-(3-(2-(7-chloro-2-quinolinyl)ethenyl)phenyl)-3-(2-acetylphenyl)propyl)thio)methyl)cyclopropane acetic acid dicyclohexylamine salt]: the “amount of solvent needed to dissolve the compound at reflux” value runs as follows: (acetone) 100 volumes acetone; (isopropyl acetate) 45 volumes isopropyl acetate.

As to `COC(=O)c1ccccc1CC[C@@H](SCC1(CC(=O)O)CC1)c1cccc(/C=C/c2ccc3ccc(Cl)cc3n2)c1` [R = —CO2CH3], the “amount of solvent needed to dissolve the compound at reflux” value by setting is: (acetone) 50 volumes acetone; (isopropyl acetate) 20 volumes isopropyl acetate.

(Values after patent publication US8163924B2, “Process for preparing a leukotriene antagonist and an intermediate thereof” (Moehs Ibérica, S.L., priority 2007, dated 2012).)
